Target: T1, human CCR5 (Homo sapiens, UniProt P51681)
T1 construct: expressed in transfected cells
Assay: Evaluation of test compounds based on CCR5 antagonistic activity: inhibition of [125I]-RANTES binding to CCR5/CHO cells
Details: Test Compound 1 μM, 100 pM [125I]-RANTES, room temperature for 40 minutes
Method: Cloning of CCR5 gene was carried out by a PCR method from human spleen cDNA. With using 0.5 ng of spleen cDNA (Toyobo, QUICK-Clone cDNA) as template, PCR was performed in DNA Thermal Cycler 480 (Perkin-Elmer) (reaction conditions: 30 cycles of 95° C. for 1 minute, 60° C. for 1 minute, and 75° C. for 5 minutes) by adding each 25 pmol of primers of a primer set, • SEQ ID NO.: 1 described in Test Example (1) of WO 99/32100 [length of sequence: 34; type of sequence: nucleic acid; strandedness: single; topology: straight; kind of sequence: other nucleic acid synthetic DNA, and • SEQ ID NO.: 2 described in Test Example (1) of WO 99/32100 [length of sequence: 34; type of sequence: nucleic acid; strandedness: single; topology: straight; kind of sequence: other nucleic acid synthetic DNA which were designed referring to nucleotide sequence of CCR5 gene reported by Samson et. al. (Biochemistry, 35(11), 3362-3367 (1996)) and by using TaKaRa EX Taq (Takara Shuzo). The resultant PCR product was subjected to agarose gel electrophoresis to collect about 1.0 kb DNA fragment, which was subjected to Original TA Cloning Kit (Funakoshi) to carry out cloning of CCR5 gene. (2) Preparation of Plasmid for Expression of Human CCR5
The plasmid obtained in the above (1) was digested with restriction enzymes XbaI (Takara Shuzo) and BamHI (Takara Shuzo) and subjected to agarose gel electrophoresis to collect about 1.0 kb DNA fragment.
The DNA fragment was mixed with plasmid pcDNA3.1 (Funakoshi) for expression in animal cells, said plasmid being digested with XbaI and BamHI, and they were ligated with DNA Ligation Kit Ver.2 (Takara Shuzo). The resulting plasmid was subjected to transformation of competent cell of E. coli JM109 (Takara Shuzo) to obtain plasmid pCKR5.
CHO-K1 cells were grown in 750 ml of tissue culture flask (Becton Dickinson) using Ham's F12 medium (Nihon Pharmaceutical) containing 10% fetal calf serum (Life Tech Oriental) and taken off with 0.5 g/L trypsin-0.2 g/L EDTA (Life Tech Oriental). The cells were washed with PBS (Life Tech Oriental), centrifuged (1000 rpm, 5 minutes), and suspended in PBS. With using Gene Pulser (Bio-Rad Laboratories), DNA was introduced into the cells under the conditions shown below. That is, to the cuvette of 0.4 cm gap were added 8×10^6 cells and 10 μg of plasmid pCKR5 for expression of human CCR5, and electroporation was carried out under 0.25 kV of voltage and 960 μF of capacitance. The cells were transferred into Ham's F12 medium containing 10% fetal calf serum, and cultivated for 24 hours. The cells were again taken off and centrifuged, and suspended in Ham's F12 medium containing 10% fetal calf serum and 500 μg/ml of geneticin (Life Tech Oriental). The suspension was diluted to give 10^4 cells/ml of the suspension, which was inoculated on a 96 well plate (Becton Dickinson) to give geneticin resistant cells.
The resulting geneticin resistant cells were cultivated in 96 well plate (Becton Dickinson), and cells expressing CCR5 were selected from the geneticin resistant cells. That is, in assay buffer (Ham's F12 medium containing 0.5% BSA and 20 mM HEPES (Wako Pure Chemical, pH7.2)) to which was added 200 pM of [^125I]-RANTES (Amersham) as a ligand, a binding reaction was carried out at room temperature for 46 minutes, and the buffer was washed with cooled PBS. To the buffer was added 50 μl/well of 1M NaOH, and the mixture was stirred. Radioactivity was determined with a y-counter to select CCR5/CHO cells which specifically bind to the ligand.
The CCR5/CHO cells were inoculated on 96 well microplate (5×10^4 cells/well) and cultivated for 24 hours. The medium was removed by means of suction, and to each well was added an assay buffer containing Test Compound (1 μM) and then 100 pM of [^125I]-RANTES (Amersham) as a ligand. A binding assay was carried out at room temperature for 40 minutes, and an assay buffer was removed by means of suction. […]

T1 sequence (P51681 whole entry): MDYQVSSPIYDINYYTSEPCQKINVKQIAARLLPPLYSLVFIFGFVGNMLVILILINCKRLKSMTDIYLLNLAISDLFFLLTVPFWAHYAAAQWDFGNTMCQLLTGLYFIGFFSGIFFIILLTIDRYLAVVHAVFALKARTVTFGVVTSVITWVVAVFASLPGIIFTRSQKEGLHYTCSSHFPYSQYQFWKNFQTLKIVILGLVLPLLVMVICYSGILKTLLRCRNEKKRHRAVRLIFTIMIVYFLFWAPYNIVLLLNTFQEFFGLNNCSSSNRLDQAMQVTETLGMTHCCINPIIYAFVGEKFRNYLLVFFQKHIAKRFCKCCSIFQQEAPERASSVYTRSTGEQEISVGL

Row | SMILES | Inhibitory Rate (%)
1 | CCCCOCCOc1ccc(-c2ccc3c(c2)C=C(C(=O)Nc2ccc(CN(C)C4CCOCC4)cc2)CCN3Cc2cncs2)cc1 [Compound 98] | 100
2 | CCCCOCCOc1ccc(-c2ccc3c(c2)C=C(C(=O)Nc2ccc(CN(C)C4CCOCC4)cc2)CCN3CC)cc1 [Compound 19, 7-[4-(2-butoxyethoxy)phenyl]-1-ethyl-N-[4-[[N-methyl-N-(tetrahydro-2H-pyran-4-yl)amino]methyl]phenyl]-2,3-dihydro-1-H-1-benzazepine-4-carboxamide] | 100
3 | CCCCOCCOc1ccc(-c2ccc3c(c2)C=C(C(=O)Nc2ccc(CN(C)C4CCOCC4)cc2)CCN3CC(C)C)cc1 [Compound 85] | 100

Same assay, conditions: Test Compound 1 μM, 100 pM [125I]-RANTES, room temperature for 40 minutes, read-out: Inhibitory Rate (%)

Row | SMILES | inhibition at 1 µM [%]
4 | CCCCOCCOc1ccc(-c2ccc3c(c2)C=C(C(=O)Nc2ccc(CN(C)C4CCOCC4)cc2)CCN3Cc2nnn(C)n2)cc1 [Compound 102, 7-[4-(2-butoxyethoxy)phenyl]-N-[4-[N-methyl-N-(tetrahydropyran-4-yl)aminomethyl]phenyl]-1-(2-methyltetrazol-5-ylmethyl)-2,3-dihydro-1-benzazepine-4-carboxamide] | 100
5 | CCCCOCCOc1ccc(-c2ccc3c(c2)C=C(C(=O)Nc2ccc(CN(C)C4CCOCC4)cc2)CCN3Cc2nccs2)cc1 [Compound 68, 7-(4-butoxyethoxyphenyl)-N-[4-[[N-methyl-N-(tetrahydropyran-4-yl)amino]methyl]phenyl]-1-(thiazol-2-yl)methyl-2,3-dihydro-1-benzazepine-4-carboxamide] | 95
6 | CCCCOCCOc1ccc(-c2ccc3c(c2)C=C(C(=O)Nc2ccc(CN(C)C4CCOCC4)cc2)CCN3Cc2c(C)noc2C)cc1 [Compound 71, 7-(4-butoxyethoxyphenyl)-1-[(3,5-dimethylisoxazol-4-yl)methyl]-N-[4-[[N-methyl-N-(tetrahydropyran-4-yl)amino]methyl]phenyl]-2,3-dihydro-1-benzazepine-4-carboxamide] | 100
7 | CCOCCOc1ccc(-c2ccc3c(c2)C=C(C(=O)Nc2ccc(CN(C)C4CCOCC4)cc2)CCN3C=O)cc1F [Compound 20, 7-[4-(2-ethoxy)ethoxy-3-fluorophenyl]-1-formyl-N-[4-[[N-methyl-N-(tetrahydro-2H-pyran-4-yl)amino]methyl]phenyl]-2,3-dihydro-1H-1-benzazepine-4-carboxamide] | 94
8 | CCCCOCCOc1ccc(-c2ccc3c(c2)C=C(C(=O)Nc2ccc(CN(C)C4CCOCC4)cc2)CCN3Cc2nnn(CC)n2)cc1 [Compound 112, 7-[4-(2-butoxyethoxy)phenyl]-1-(2-ethyltetrazol-5-ylmethyl)-N-[4-[N-methyl-N-(tetrahydropyran-4-yl)aminomethyl]phenyl]-2,3-dihydro-1-benzazepine-4-carboxamide] | 100
9 | CCCCOCCOc1ccc(-c2ccc3c(c2)C=C(C(=O)Nc2ccc(CN(C)C4CCCOC4)cc2)CCN3Cc2cc(C)ns2)cc1 (centres unmarked) [Compound 77, 7-(4-butoxyethoxyphenyl)-1-[(3-methylisothiazol-5-yl)methyl]-N-[4-[[N-methyl-N-(tetrahydropyran-5-yl)amino]methyl]phenyl]-2,3-dihydro-1-benzazepine-4-carboxamide] | 97

Test system: not given
Assay: not given
Details: not given

Row | SMILES | melting point [°C]
10 | CCCCOCCOc1ccc(-c2ccc3c(c2)C=C(C(=O)Nc2ccc(CN(C)C4CCOCC4)cc2)CCN3C)cc1 [Compound 18, 7-[4-(2-butoxyethoxy)phenyl]-1-methyl-N-[4-[[N-methyl-N-(tetrahydro-2H-pyran-4-yl)amino]methyl]phenyl]-2,3-dihydro-1H-1-benzazepine-4-carboxamide] | 107 to 110
11 | CCCCOCCOc1ccc(-c2ccc3c(c2)C=C(C(=O)Nc2ccc(CN(C)C4CCOCC4)cc2)CCN3)cc1 [Compound 28, 7-[4-(2-butoxyethoxy)phenyl]-N-[4-[[N-methyl-N-(tetrahydro-2H-pyran-4-yl)amino]methyl]phenyl]-2,3-dihydro-1H-1-benzazepine-4-carboxamide] | 119 to 123
12 | CCCCOCCOc1ccc(-c2ccc3c(c2)C=C(C(=O)Nc2ccc(CN(C)C4CCOCC4)cc2)CCN3Cc2ccccc2OCC)cc1 [Compound 63, 7-(4-butoxyethoxyphenyl)-1-(2-ethoxybenzyl)-N-[4-[[N-methyl-N-(tetrahydropyran-4-yl)amino]methyl]phenyl]-2,3-dihydro-1-benzazepine-4-carboxamide] | 104.5 to 105.5
13 | CCCCOCCOc1ccc(-c2ccc3c(c2)C=C(C(=O)Nc2ccc(CN(C)C4CCOCC4)cc2)CCN3Cc2cccc(OC)c2)cc1 [Compound 54, 7-(4-butoxyethoxyphenyl)-1-(3-methoxybenzyl)-N-[4-[[N-methyl-N-(tetrahydropyran-4-yl)amino]methyl]phenyl]-2,3-dihydro-1-benzazepine-4-carboxamide] | 107.5 to 108.5
14 | CC#CCN1CCC(C(=O)Nc2ccc(CN(C)C3CCOCC3)cc2)=Cc2cc(-c3ccc(OCCOCCCC)cc3)ccc21 [Compound 95, 7-[4-(2-butoxyethoxy)phenyl]-1-(2-butynyl)-N-[4-[N-methyl-N-(tetrahydropyran-4-yl)aminomethyl]phenyl]-2,3-dihydro-1-benzazepine-4-carboxamide] | 129 to 131
15 | CCCCOCCOc1ccc(-c2ccc3c(c2)C=C(C(=O)Nc2ccc(CN(C)C4CCOCC4)cc2)CCN3Cc2ccoc2)cc1 [Compound 62, 7-(4-butoxyethoxyphenyl)-1-(3-furylmethyl)-N-[4-[[N-methyl-N-(tetrahydropyran-4-yl)amino]methyl]phenyl]-2,3-dihydro-1-benzazepine-4-carboxamide] | 116 to 117
16 | CCCCOCCOc1ccc(-c2ccc3c(c2)C=C(C(=O)Nc2ccc(CN(C)C4CCOCC4)cc2)CCN3c2cccc(OC)c2)cc1 [Compound 40, 7-[4-(2-butoxyethoxy)phenyl]-1-(3-methoxyphenyl)-N-(4-[[N-methyl-N-(tetrahydro-2H-pyran-4-yl)amino]methyl]phenyl]-2,3-dihydro-1H-1-benzazepine-4-carboxamide] | 94 to 97
17 | CCCOCCOc1ccc(-c2ccc3c(c2)C=C(C(=O)Nc2ccc(CN(C)C4CCOCC4)cc2)CCN3Cc2ccsc2)cc1 [Compound 57, N-[4-[[N-methyl-N-(tetrahydropyran-4-yl)amino]methyl]phenyl]-7-(4-propoxyethoxyphenyl)-1-(3-thienylmethyl)-2,3-dihydro-1-benzazepine-4-carboxamide] | 131.5 to 132.5
18 | CCCOCCOc1ccc(-c2ccc3c(c2)C=C(C(=O)Nc2ccc(CN(C)C4CCOCC4)cc2)CCN3Cc2cccs2)cc1 [Compound 59, N-[4-[[N-methyl-N-(tetrahydropyran-4-yl)amino]methyl]phenyl]-7-(4-propoxyethoxyphenyl)-1-(2-thienylmethyl)-2,3-dihydro-1-benzazepine-4-carboxamide] | 104.5 to 105.5
19 | CCCCOCCOc1ccc(-c2ccc3c(c2)C=C(C(=O)Nc2ccc(CN(C)C4CCOCC4)cc2)CCN3CC2CCCCC2)cc1 [Compound 34, 7-[4-(2-butoxyethoxy)phenyl]-1-cyclohexylmethyl-N-[4-[[N-methyl-N-(tetrahydro-2H-pyran-4-yl)amino]methyl]phenyl]-2,3-dihydro-1H-1-benzazepine-4-carboxamide] | 115 to 117
20 | CCCOCCOc1ccc(-c2ccc3c(c2)C=C(C(=O)Nc2ccc(CN(C)C4CCOCC4)cc2)CCN3c2ccccc2)cc1.Cl | 223 to 224

From patent US6936602B1, “Benzazepine derivatives, process for the preparation of the same and uses thereof” (Takeda Chemical Industries, Ltd., priority 1999, dated 2005)
